In ChEMBL document CHEMBL5518238, “Structure-Activity Relationship (SAR) Studies of Novel Monovalent AR/AR-V7 Dual Degraders with Potent Efficacy against Advanced Prostate Cancer” (J Med Chem, 2024):
The source made the active and inactive calls. No cut-off for these calls is given here.

How the values were obtained:
[1] = test system: CWR22R; test: cells; format: functional, cell-based; settings: Homo sapiens, 22Rv1, 48 h
Description: Antiproliferative activity against AR/AR-V7 positive human 22Rv1 cells assessed as inhibition of cell growth incubated for 48 hrs by CCK-8 assay

[2] = test system: LNCaP; test: Antiproliferative activity against human LNCaP cells assessed as inhibition of cell growth incubated for 48 hrs by CCK-8 assay; format: functional, cell-based
[3] = Antiproliferative activity against human L02 cells assessed as inhibition of cell growth incubated for 48 hrs by CCK-8 assay; format: toxicity, cell-based
[4] = test system: DU-145; test: Antiproliferative activity against AR-negative human DU-145 cells assessed as inhibition of cell growth incubated for 48 hrs by CCK-8 assay; format: functional, cell-based; settings: DU-145, 48 h
[5] = test system: CWR22R; test: Antitumor activity against human 22Rv1 cells xenografted in NSG mouse assessed as change in tumor volume at 30 mg/kg, IG administered once daily for 21 days; format: functional, organism-based; settings: time 21.0 day
[6] = Toxicity in NSG mouse xenografted with human 22Rv1 cells assessed as effect on body weight at 30 mg/kg, IG administered once daily for 21 days; format: organism-based, CWR22R; settings: in vivo, po, 504 h, time 21 day

CC1(C)C(=O)N(c2ccc(C#N)c(C(F)(F)F)c2)C(=O)N1CCNc1cccc2ccccc12
IC50 [1]: 19.5 µM

CC1(C)C(=O)N(c2ccc(C#N)c(C(F)(F)F)c2)C(=O)N1CCCn1cc(Br)cn1
IC50 [1]: 2 µM

CC1(C)C(=O)N(c2ccc(C#N)c(C(F)(F)F)c2)C(=O)N1CCCn1cc(C(F)(F)F)cn1
IC50 [1]: 19.8 µM

CC1(C)C(=O)N(c2ccc(C#N)c(C(F)(F)F)c2)C(=O)N1CC(=O)Nc1cccnc1
IC50 [1]: 10.8 µM

CC1(C)C(=O)N(c2ccc(C#N)c(C(F)(F)F)c2)C(=O)N1CCNc1ccc2ccccc2c1
IC50 [1]: > 50 µM

C[C@]12CC[C@H](O)CC1=CC[C@@H]1[C@@H]2CC[C@]2(C)C(n3cnc4ccccc43)=CC[C@@H]12 [GALETERONE]
IC50 [2]: 2 µM | IC50 at 48 h [3]: > 100 µM | IC50 [1]: 11.6 µM

Cc1ccc(NCCCN2C(=O)N(c3ccc(C#N)c(C(F)(F)F)c3)C(=O)C2(C)C)c2cccnc12
IC50 [1]: 36.8 µM

CC1(C)C(=O)N(c2ccc(C#N)c(C(F)(F)F)c2)C(=O)N1CCNc1ccc2cccnc2c1
IC50 [1]: 2.2 µM

CC1(C)C(=O)N(c2ccc(C#N)c(C(F)(F)F)c2)C(=O)N1CCN(c1ccc2ncccc2c1)c1ccc2ncccc2c1
IC50 [1]: 6.8 µM

CC1(C)C(=O)N(c2ccc(C#N)c(C(F)(F)F)c2)C(=O)N1CCN(c1ccc(-c2ccncc2)cc1)c1ccc(-c2ccncc2)cc1
IC50 [1]: > 50 µM

CC1(C)C(=O)N(c2ccc(C#N)c(C(F)(F)F)c2)C(=O)N1CCn1cc(Br)cn1
IC50 [1]: 46.3 µM

CC1(C)C(=O)N(c2ccc(C#N)c(C(F)(F)F)c2)C(=O)N1CCNc1ccc2cnccc2c1
IC50 [4]: 33 µM | IC50 [1]: 5.1 µM

CC1(C)C(=O)N(c2ccc([N+](=O)[O-])c(C(F)(F)F)c2)C(=O)N1CC(=O)Nc1ccccn1
IC50 [1]: > 50 µM

CC1(C)C(=O)N(c2ccc(C#N)c(C(F)(F)F)c2)C(=O)N1CCCNc1cccc2ncccc12
IC50 [1]: 25.7 µM

CC1(C)C(=O)N(c2ccc(C#N)c(C(F)(F)F)c2)C(=O)N1Cn1cc(Br)cn1
IC50 [1]: 23.2 µM

CC1(C)C(=O)N(c2ccc(C#N)c(C(F)(F)F)c2)C(=O)N1CCN(c1ccc2cccnc2c1)c1ccc2cccnc2c1
IC50 [1]: > 50 µM

CC1(C)C(=O)N(c2ccc(C#N)c(C(F)(F)F)c2)C(=O)N1CCNc1cccc2ccncc12
IC50 [4]: > 50 µM | IC50 [1]: 7.8 µM

CC1(C)C(=O)N(c2ccc(C#N)c(C(F)(F)F)c2)C(=O)N1CCNc1cccc2ncccc12
IC50 [1]: 1.3 µM

CC1(C)C(=O)N(c2ccc(C#N)c(C(F)(F)F)c2)C(=O)N1CCNc1cncnc1
IC50 [1]: 43.9 µM

CC(C)(c1ccc(OC[C@H](O)CO)cc1)c1ccc(OC[C@H](O)CCl)cc1
IC50 [1]: 40.4 µM

CC1(C)C(=O)N(c2ccc(C#N)c(C(F)(F)F)c2)C(=O)N1CCNc1ccc2ccccc2n1
IC50 [1]: 11.7 µM

CC1(C)C(=O)N(c2ccc(C#N)c(C(F)(F)F)c2)C(=O)N1CCn1cnc(C(F)(F)F)n1
IC50 [1]: 10.3 µM

CC1(C)C(=O)N(c2ccc(C#N)c(C(F)(F)F)c2)C(=O)N1CCNc1ccc([N+](=O)[O-])c2ncccc12
IC50 [4]: > 50 µM | IC50 [1]: 3.1 µM

CC1(C)C(=O)N(c2ccc(C#N)c(C(F)(F)F)c2)C(=O)N1CCNc1ccc2ncccc2c1
IC50 [1]: 5.4 µM

CC1(C)C(=O)N(c2ccc(C#N)c(C(F)(F)F)c2)C(=O)N1CC(=O)Nc1ccccn1
IC50 [1]: 17 µM

CC1(C)C(=O)N(c2ccc(C#N)c(C(F)(F)F)c2)C(=O)N1Cn1cc(F)cn1
IC50 [1]: 14.5 µM

CC1(C)C(=O)N(c2ccc(C#N)c(C(F)(F)F)c2)C(=O)N1CC(=O)Nc1ccnc2ccccc12
IC50 [1]: 13.8 µM

CC1(C)C(=O)N(c2ccc(C#N)c(C(F)(F)F)c2)C(=O)N1CCNc1ccc2ccncc2c1
IC50 [4]: > 50 µM | IC50 [1]: 2.3 µM

Cc1ccc(NCCN2C(=O)N(c3ccc(C#N)c(C(F)(F)F)c3)C(=O)C2(C)C)c2cccnc12
IC50 [4]: > 50 µM | IC50 [1]: 9.8 µM

CC1(C)C(=O)N(c2ccc(C#N)c(C(F)(F)F)c2)C(=O)N1CCCNc1cccc2ccncc12
IC50 [1]: 21.8 µM

CC1(C)C(=O)N(c2ccc([N+](=O)[O-])c(C(F)(F)F)c2)C(=O)N1CC(=O)NCc1cccnc1
IC50 [1]: > 50 µM

CC1(C)C(=O)N(c2ccc(C#N)c(C(F)(F)F)c2)C(=O)N1CC(=O)Nc1cnc2ccccc2c1
IC50 [1]: 14.6 µM

CC1(C)C(=O)N(c2ccc(C#N)c(C(F)(F)F)c2)C(=O)N1CCNc1cnc2ccccc2c1
IC50 [1]: 49.5 µM

CC1(C)C(=O)N(c2ccc(C#N)c(C(F)(F)F)c2)C(=O)N1CCCn1cc(F)cn1
IC50 [1]: 3.7 µM

CC1(C)C(=O)N(c2ccc(C#N)c(C(F)(F)F)c2)C(=O)N1CCNc1ccccn1
IC50 [1]: 13.1 µM

CC1(C)C(=O)N(c2ccc(C#N)c(C(F)(F)F)c2)C(=O)N1CCNc1cnccn1
IC50 [1]: 10.6 µM

CC1(C)C(=O)N(c2ccc(C#N)c(C(F)(F)F)c2)C(=O)N1CCNc1ncccn1
IC50 [1]: 24.9 µM

CC1(C)C(=O)N(c2ccc(C#N)c(C(F)(F)F)c2)C(=O)N1Cn1cc(C(F)(F)F)cn1
IC50 [1]: 11.3 µM

CC1(C)C(=O)N(c2ccc(C#N)c(C(F)(F)F)c2)C(=O)N1CCn1cc(F)cn1
IC50 [1]: 7.9 µM

CC1(C)C(=O)N(c2ccc([N+](=O)[O-])c(C(F)(F)F)c2)C(=O)N1CC(=O)Nc1cccnc1
IC50 [1]: > 50 µM

CC1(C)C(=O)N(c2ccc(C#N)c(C(F)(F)F)c2)C(=O)N1CCNc1cccnc1
IC50 [1]: 11.9 µM

CC1(C)C(=O)N(c2ccc(C#N)c(C(F)(F)F)c2)C(=O)N1CCCNc1ccc2ncccc2c1
IC50 [1]: 27.3 µM

CC1(C)C(=O)N(c2ccc(C#N)c(C(F)(F)F)c2)C(=O)N1CCN(c1ccc2nccnc2c1)c1ccc2nccnc2c1
IC50 [1]: 12.2 µM

CC1(C)C(=O)N(c2ccc(C#N)c(C(F)(F)F)c2)C(=O)N1CCn1cc(C(F)(F)F)cn1
IC50 [1]: 8.9 µM

CC1(C)C(=O)N(c2ccc(C#N)c(C(F)(F)F)c2)C(=O)N1CC(=O)NCc1cccnc1
IC50 [1]: 22.1 µM

CC1(C)C(=O)N(c2ccc([N+](=O)[O-])c(C(F)(F)F)c2)C(=O)N1CC(=O)NCc1ccccn1
IC50 [1]: 26 µM

CC1(C)C(=O)N(c2ccc(C#N)c(C(F)(F)F)c2)C(=O)N1CCNc1ccnc2ccccc12
IC50 [1]: 8.7 µM

CC1(C)C(=O)N(c2ccc(C#N)c(C(F)(F)F)c2)C(=O)N1CCCNc1ccc2ccncc2c1
IC50 [1]: 22 µM

N#Cc1ccc(O[C@H]2CC[C@H](NC(=O)c3ccc(N4CCC(CN5CCN(c6cc7c(cc6F)C(=O)N(C6CCC(=O)NC6=O)C7=O)CC5)CC4)nn3)CC2)cc1Cl (stereo not given in full) [BAVDEGALUTAMIDE]
IC50 [1]: 3.9 µM

C[C@]12CC[C@H](O)CC1=CC[C@@H]1[C@@H]2CC[C@]2(C)C(c3cccnc3)=CC[C@@H]12 [ABIRATERONE]
Activity [5]: Active | Activity [6]: Non-Toxic

CC1(C)C(=O)N(c2ccc(C#N)c(C(F)(F)F)c2)C(=O)N1CC(=O)Nc1cccc2ncccc12
IC50 [1]: 24.9 µM

CC1(C)C(=O)N(c2ccc(C#N)c(C(F)(F)F)c2)C(=O)N1CC(=O)Nc1ccc2ncccc2c1
IC50 [1]: 35.8 µM

CC1(C)C(=O)N(c2ccc(C#N)c(C(F)(F)F)c2)C(=O)N1CCNc1ccc(C#N)c2ncccc12
IC50 [4]: > 50 µM | IC50 [1]: 2.8 µM

CC1(C)C(=O)N(c2ccc(C#N)c(C(F)(F)F)c2)C(=O)N1CCN(c1ccc2ncncc2c1)c1ccc2ncncc2c1
IC50 [1]: 15 µM

CNC(=O)c1ccc(N2C(=S)N(c3ccc(C#N)c(C(F)(F)F)c3)C(=O)C2(C)C)cc1F [ENZALUTAMIDE]
Activity [5]: Active | Activity [6]: Non-Toxic | IC50 [1]: 15.6 µM

CC1(C)C(=O)N(c2ccc(C#N)c(C(F)(F)F)c2)C(=O)N1CCCn1ccc2cc(F)ccc21
IC50 [1]: 13.6 µM

CC1(C)C(=O)N(c2ccc(C#N)c(C(F)(F)F)c2)C(=O)N1CCNc1cccc2cccnc12
IC50 [1]: > 50 µM

CC1(C)C(=O)N(c2ccc(C#N)c(C(F)(F)F)c2)C(=O)N1CC(=O)Nc1cccc2cccnc12
IC50 [1]: 23.5 µM

CC1(C)C(=O)N(c2ccc(C#N)c(C(F)(F)F)c2)C(=O)N1CC(=O)NCc1ccccn1
IC50 [1]: 33.7 µM
